Here are results for 25 molecules from patent publication US20240199546A1, “INHIBITORS OF SOLUTE CARRIER FAMILY 6A MEMBER 19 (SLC6A19) AND METHODS OF USE THEREOF” (Maze Therapeutics, Inc., priority 2022, published 2024).

For this experiment, the target named is T1, human SLC6A19 and TMEM27 (Homo sapiens, UniProt Q695T7).
T1 construct: expressed in transfected cells
T1 sequence (Q695T7 1-634): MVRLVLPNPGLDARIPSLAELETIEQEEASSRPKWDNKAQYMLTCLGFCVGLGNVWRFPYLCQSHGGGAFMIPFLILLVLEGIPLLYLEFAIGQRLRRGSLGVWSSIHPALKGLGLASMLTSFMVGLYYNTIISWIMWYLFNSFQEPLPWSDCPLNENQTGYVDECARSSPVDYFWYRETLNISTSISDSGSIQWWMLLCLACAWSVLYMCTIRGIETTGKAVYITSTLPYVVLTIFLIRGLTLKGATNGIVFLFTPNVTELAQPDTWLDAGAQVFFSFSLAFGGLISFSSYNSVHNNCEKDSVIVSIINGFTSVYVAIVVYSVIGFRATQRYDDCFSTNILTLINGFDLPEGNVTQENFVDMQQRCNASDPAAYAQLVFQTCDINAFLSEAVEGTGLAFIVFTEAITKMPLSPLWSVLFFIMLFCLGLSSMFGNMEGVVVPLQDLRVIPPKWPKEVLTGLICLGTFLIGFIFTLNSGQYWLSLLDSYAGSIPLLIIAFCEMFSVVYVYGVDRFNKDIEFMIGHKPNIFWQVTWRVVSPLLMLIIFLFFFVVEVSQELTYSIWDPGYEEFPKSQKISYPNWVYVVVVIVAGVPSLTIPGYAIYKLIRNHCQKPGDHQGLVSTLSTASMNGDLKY
T1 sequence (Q9HBJ8 15-222 partner): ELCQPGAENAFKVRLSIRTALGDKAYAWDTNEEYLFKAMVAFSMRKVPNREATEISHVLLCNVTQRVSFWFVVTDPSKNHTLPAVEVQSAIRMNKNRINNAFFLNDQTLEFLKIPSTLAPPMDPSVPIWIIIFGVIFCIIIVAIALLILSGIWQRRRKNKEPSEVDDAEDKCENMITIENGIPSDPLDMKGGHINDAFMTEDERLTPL
Kind of experiment: Radiolabelled (3H) leucine uptake in CHO cells with doxycycline-inducible expression of human SLC6A19 and TMEM27 (Example B-1). The conditions noted are these: CHO cells with doxycycline-inducible expression of human SLC6A19 and TMEM27, read-out: SLC6A19_Radioligand Uptake Assay IC50. The format is cell-based. An outline of the steps:
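CHO cells were induced with doxycycline for 18 h at 37 °C, washed in HBSS, then exposed to compounds for 1 h: 8-point, 3-fold dilutions in duplicate, 0.5% DMSO final. Uptake measured by scintillation counting after 2 h shaking. Activity normalized with positive control as 0% and DMSO as 100%.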
The IC50 is the midpoint of a concentration-inhibition curve. On to `CC1(C(=O)NCc2[nH]c3cc(OCc4cscn4)ccc3c2C(F)(F)F)CC1` [Compound 640, 1-methyl-N-((6-(thiazol-4-ylmethoxy)-3-(trifluoromethyl)-1H-indol-2-yl)methyl)cyclopropane-1-carboxamide], for which the IC50 is 666 nM.
For the molecule `Cc1cc(COc2cc3[nH]c(CNC(=O)C4(O)CC4)cc3cc2Cl)on1` [Compound 251, N-((5-chloro-6-((3-methylisoxazol-5-yl)methoxy)-1H-indol-2-yl)methyl)-1-hydroxycyclopropane-1-carboxamide], the IC50 was 194 nM.
As for `Cc1cc(COc2cc3[nH]c(CNC(=O)CC4COC4)cc3cc2Cl)on1` [Compound 258, N-((5-chloro-6-((3-methylisoxazol-5-yl)methoxy)-1H-indol-2-yl)methyl)-2-(oxetan-3-yl)acetamide], the concentration for half-maximal inhibition (IC50) came out at 2670 nM.
In the case of `Cc1cc(COc2cc3[nH]c(CNC(=O)NCC(F)F)cc3cc2Cl)on1` [Compound 374, 1-((5-chloro-6-((3-methylisoxazol-5-yl)methoxy)-1H-indol-2-yl)methyl)-3-(2,2-difluoroethyl)urea], the IC50 was 412 nM.
Next, `CC1CN(C(=O)NCc2cc3cc(Cl)c(OCc4cscn4)cc3[nH]2)C1` [Compound 80, N-((5-chloro-6-(thiazol-4-ylmethoxy)-1H-indol-2-yl)methyl)-3-methylazetidine-1-carboxamide]: 350 nM; `CC(=O)NCc1cc2cc(Cl)c(OCCOC(F)(F)F)cc2[nH]1` [Compound 338, N-((5-chloro-6-(2-(trifluoromethoxy)ethoxy)-1H-indol-2-yl)methyl)acetamide]: 159 nM.
With `O=C(NCc1cc2cc(F)c(OCc3ccon3)cc2[nH]1)N1CCC1` [Compound 89, N-((5-fluoro-6-(isoxazol-3-ylmethoxy)-1H-indol-2-yl)methyl)azetidine-1-carboxamide], the IC50 was 567 nM.
As for `O=C(NCc1cc2cc(Cl)c(OCc3cscn3)cc2[nH]1)C1CCO1` (stereo not shown) [Compound 269, N-((5-chloro-6-(thiazol-4-ylmethoxy)-1H-indol-2-yl)methyl)oxetane-2-carboxamide], the IC50 was 66.6 nM.
For `CCC(=O)NCc1cc2c(F)cc(OCc3ccon3)cc2[nH]1` [Compound 517, N-((4-fluoro-6-(isoxazol-3-ylmethoxy)-1H-indol-2-yl)methyl)propionamide], the IC50 was determined as 243 nM.
Take `Cc1cc(COc2cc3[nH]c(CNC(=O)NCCF)cc3cc2Cl)on1` [Compound 371, 1-((5-chloro-6-((3-methylisoxazol-5-yl)methoxy)-1H-indol-2-yl)methyl)-3-(2-fluoroethyl)urea]: the IC50 was determined as 141 nM.
On to `Cc1cc(COc2cc3[nH]c(CNC(=O)CC(F)F)cc3cc2F)on1` [Compound 518, 3,3-difluoro-N-((5-fluoro-6-((3-methylisoxazol-5-yl)methoxy)-1H-indol-2-yl)methyl)propanamide], for which the IC50 was determined as 179 nM.
In the case of `CNCC(=O)NCc1cc2cc(Cl)c(OCc3cc(C)no3)cc2[nH]1` [Compound 615, N-((5-chloro-6-((3-methylisoxazol-5-yl)methoxy)-1H-indol-2-yl)methyl)-2-(methylamino)acetamide], the IC50 was found to be 2070 nM.
As for `O=C(NCc1cc2cc(C(F)(F)F)c(OCc3ccon3)cc2[nH]1)N1CCCC1` [Compound 476, N-((6-(isoxazol-3-ylmethoxy)-5-(trifluoromethyl)-1H-indol-2-yl)methyl)pyrrolidine-1-carboxamide], the figure is 408 nM; as for `CC1(C(=O)NCc2cc3cc(Cl)c(OCc4cc5ccccc5[nH]4)cc3[nH]2)CC1` [Compound 607, N-((6-((1H-indol-2-yl)methoxy)-5-chloro-1H-indol-2-yl)methyl)-1-methylcyclopropane-1-carboxamide], greater than 6440 nM; as for `O=C(NCc1cc2cc(C3CC3)c(OCc3cscn3)cc2[nH]1)N1CCC1` [Compound 651, N-((5-cyclopropyl-6-(thiazol-4-ylmethoxy)-1H-indol-2-yl)methyl)azetidine-1-carboxamide], 340 nM.
Consider `Cc1cc(COc2cc3[nH]c(CNC(=O)CC4CC4)cc3cc2Cl)on1` [Compound 449, N-((5-chloro-6-((3-methylisoxazol-5-yl)methoxy)-1H-indol-2-yl)methyl)-2-cyclopropylacetamide], for which the IC50 was 187 nM.
On to `Cc1cc(COc2cc3[nH]c(CNC(=O)C(C)C4COC4)cc3cc2Cl)on1` (racemic) [Compound 545, (S)-N-((5-chloro-6-((3-methylisoxazol-5-yl)methoxy)-1H-indol-2-yl)methyl)-2-(oxetan-3-yl)propenamide and (R)-N-((5-chloro-6-((3-methylisoxazol-5-yl)methoxy)-1H-indol-2-yl)methyl)-2-(oxetan-3-yl)propanamide], for which the half-maximal inhibitory concentration (IC50) is 3540 nM.
Take `COc1ccc(COc2cc3[nH]c(CNC(=O)C4(C)CC4)cc3cc2Cl)nn1` [Compound 337, N-((5-chloro-6-((6-methoxypyridazin-3-yl)methoxy)-1H-indol-2-yl)methyl)-1-methylcyclopropane-1-carboxamide]: the IC50 was found to be 1190 nM.
As to `O=C(NCc1cc2cc(OC(F)(F)F)c(CCc3ccon3)cc2[nH]1)N1CCCC1` [Compound 598, N-((6-(2-(isoxazol-3-yl)ethyl)-5-(trifluoromethoxy)-1H-indol-2-yl)methyl)pyrrolidine-1-carboxamide], the half-maximal inhibitory concentration (IC50) is 358 nM.
For the molecule `Cc1cc(COc2cc3[nH]c(CNC(=O)C4CCO4)cc3cc2F)on1` (stereo not shown) [Compound 262, N-((5-fluoro-6-((3-methylisoxazol-5-yl)methoxy)-1H-indol-2-yl)methyl)oxetane-2-carboxamide], the IC50 was 472 nM.
Regarding `Cc1cc(COc2cc3[nH]c(CNC(=O)C(C)C#N)cc3cc2Cl)on1` (single isomer, unassigned) [Compound 447, (S or R)-N-((5-chloro-6-((3-methylisoxazol-5-yl)methoxy)-1H-indol-2-yl)methyl)-2-cyanopropanamide], the IC50 was determined as 208 nM.
As for `Cc1cc(COc2cc3[nH]c(CNC(=O)[C@@H]4CC(F)(F)CN4)cc3cc2Cl)on1` [Compound 666, (S)-N-((5-chloro-6-((3-methylisoxazol-5-yl)methoxy)-1H-indol-2-yl)methyl)-4,4-difluoropyrrolidine-2-carboxamide], the figure is 2990 nM; as for `Cc1cc(COc2cc3[nH]c(CNC(=O)C4(F)CCOC4)cc3cc2Cl)on1` (stereo not shown) [Compound 305, N-((5-chloro-6-((3-methylisoxazol-5-yl)methoxy)-1H-indol-2-yl)methyl)-3-fluorotetrahydrofuran-3-carboxamide], 209 nM.
As to `Cc1cc(COc2cc3[nH]c(CNC(=O)C4(CO)CCCO4)cc3cc2Cl)on1` (stereo not shown) [Compound 295, N-((5-chloro-6-((3-methylisoxazol-5-yl)methoxy)-1H-indol-2-yl)methyl)-2-(hydroxymethyl)tetrahydrofuran-2-carboxamide], the half-maximal inhibitory concentration (IC50) came to 1610 nM.
As for `O=C(NCc1cc2cc(Cl)c(OCc3cscn3)cc2[nH]1)C1(C(F)(F)F)CC1` [Compound 144, N-((5-chloro-6-(thiazol-4-ylmethoxy)-1H-indol-2-yl)methyl)-1-(trifluoromethyl)cyclopropane-1-carboxamide], the figure is 119 nM.
